Here are results for 5 compounds from patent publication US9630977B2, “Cephalosporin derivatives and pharmaceutical compositions thereof” (Legochem Biosciences, Inc., priority 2011, dated 2017).

Holding throughout (assay): In vitro antibacterial activity test (broth microdilution)
Holding throughout (format): cell-based

Assay [1] concerns E. cloacae β19. How it is done:
(§1) To evaluate antibacterial activity of each of the compounds of Examples 1 to 68, in vitro antibacterial activity test was performed.
(§2) The in vitro antibacterial activity was evaluated by measuring MIC90 (ug/mL) of each of the compounds of Examples 1 to 68, which is defined as the lowest concentration of an antibiotic that will inhibit the visible growth of 90% of microorganisms after incubation as compared with a control group to which the antibiotic is not treated. MIC90 values were measured by the broth microdilution method developed by the Clinical and Laboratory Standards Institute (CLSI) (see CLSI M7-A5, Methods for Dilution Antimicrobial Susceptibility Test for Bacteria that Grow Aerobically-Fifth Edition (2000): CLSI, Villanova, Pa.).
(§3) In vitro antibacterial activity was measured with respect to the following 19 clinical isolates: M. catarrhalis; P. aeruginosa (5 strains); K. pneumoniae (6 strains); A. baumannii (3 strains); E. coli (2 strains); A. calcoaceticus; and E. cloacae.
(§4) Test compounds each (the cephalosporin derivative compounds prepared in Examples 1 to 68) were dissolved in DMSO at the concentration of 10,240 ug/mL, were diluted by two fold with DMSO, and then were diluted by twenty fold with sterilized distilled water. The final concentration in the antibacterial activity test was in the range of […] to 128 ug/mL, and the final concentration of DMSO used as an adjuvant was 2.5% (V/V).

The test system of assay [2] is K. pneumoniae β14. Here is the method: as §1, §2, §3, §4
For assay [3], the system named is E. coli AG100. Here is the method:
as §1, §2, §3, §4

For assay [4], the system named is K. pneumoniae 2011E. The conditions noted are these: K. pneumoniae 2011E. How it is done:
as §1, §2, §3, §4

Assay [5] concerns A. calcoaceticus ATCC15473. The conditions noted are these: A. calcoaceticus ATCC15473. Here is the method:
as §1, §2, §3, §4

In assay [6] the test system is A. baumannii 52. The conditions noted are these: A. baumannii 52. How it is done:
as §1, §2, §3, §4

Assay [7] concerns P. aeruginosa 40. Here is the method: as §1, §2, §3, §4
For assay [8], the system named is M. catarrhalis 2524. Particulars: M. catarrhalis 2524. How it is done: as §1, §2, §3, §4
The subject of assay [9] is A. baumannii 46. The conditions noted are these: A. baumannii 46. How it is done:
as §1, §2, §3, §4

Assay [10] deals with A. baumannii 49. The conditions noted are these: A. baumannii 49. How it is done:
as §1, §2, §3, §4

The test system of assay [11] is E. coli β4. How it is done: as §1, §2, §3, §4
For assay [12], the system named is P. aeruginosa 43. The conditions noted are these: P. aeruginosa 43. How it is done: as §1, §2, §3, §4
The test system of assay [13] is P. aeruginosa 37. Here is the method:
as §1, §2, §3, §4

The test system of assay [14] is P. aeruginosa 1912E. Here is the method:
as §1, §2, §3, §4

For assay [15], the system named is P. aeruginosa 6065Y. How it is done: as §1, §2, §3, §4
Where [16] appears, read: Enterobacter cloacae, read-out: MIC90.
[17] abbreviates: Klebsiella pneumoniae, read-out: MIC90.
Where [18] appears, read: Escherichia coli, AG100, E. coli AG100, read-out: MIC90.
Setting [19] is: Klebsiella pneumoniae, 2011E, read-out: MIC90.
Where [20] appears, read: Acinetobacter calcoaceticus, read-out: MIC90.
[21] abbreviates: Acinetobacter baumannii, read-out: MIC90.
The mark [22] stands for this setting: Pseudomonas aeruginosa, 40, P. aeruginosa 40, read-out: MIC90.
Where [23] appears, read: Moraxella catarrhalis, read-out: MIC90.
Where [24] appears, read: Escherichia coli, read-out: MIC90.
[25] abbreviates: Pseudomonas aeruginosa, read-out: MIC90.
Where [26] appears, read: Pseudomonas aeruginosa, 37, P. aeruginosa 37, read-out: MIC90.
The mark [27] stands for this setting: Pseudomonas aeruginosa, 1912E, read-out: MIC90.

In brackets after ≈: the same amount, converted by molar mass. Like-named read-outs stand apart in the source and are kept apart here.

With `CC(C)(O/N=C(\C(=O)N[C@@H]1C(=O)N2C(C(=O)[O-])=C(C[n+]3cnc(N)c(NC(=O)CNC(=O)c4ccc(O)c(O)c4)c3)CSC12)c1csc(N)n1)C(=O)O` (stereo partly drawn) [Compound 32], the MIC90 was 128 µg/mL (≈ 166 µM) in assay [1] (setting [16]); 64 µg/mL (≈ 83 µM) in assay [2] (setting [17]); less than 0.0625 µg/mL in [3] (setting [18]); 1 µg/mL (≈ 1.3 µM) in assay [4] (setting [19]); 0.5 µg/mL (≈ 0.649 µM) in [5] (setting [20]); 16 µg/mL (≈ 20.8 µM) in [6] (setting [21]). Besides, the MIC90 was determined as 4 µg/mL (≈ 5.19 µM) in [7] (setting [22]); 0.25 µg/mL (≈ 0.324 µM) in assay [8] (setting [23]); 1 µg/mL (≈ 1.3 µM) in assay [9] (setting [21]); 32 µg/mL (≈ 41.5 µM) in assay [10] (setting [21]); 8 µg/mL (≈ 10.4 µM) in assay [11] (setting [24]); 0.5 µg/mL (≈ 0.649 µM) in assay [12] (setting [25]). The MIC90 in [13] (setting [26]) was 4 µg/mL (≈ 5.19 µM); in assay [14] (setting [27]) it was 2 µg/mL (≈ 2.59 µM); in assay [15] (setting [25]), 4 µg/mL (≈ 5.19 µM).

With `CC(C)(O/N=C(\C(=O)N[C@@H]1C(=O)N2C(C(=O)[O-])=C(C[n+]3cnc(N)c(NCCNC(=O)c4ccc(O)c(C(=O)O)c4)c3)CSC12)c1csc(N)n1)C(=O)O` (stereo partly drawn) [Compound 33], the MIC90 was more than 128 µg/mL in assay [1] (setting [16]); 128 µg/mL (≈ 163 µM) in assay [2] (setting [17]); 16 µg/mL (≈ 20.4 µM) in assay [3] (setting [18]); 16 µg/mL (≈ 20.4 µM) in assay [4] (setting [19]); 128 µg/mL (≈ 163 µM) in assay [5] (setting [20]); more than 128 µg/mL in assay [6] (setting [21]). The MIC90 in assay [7] (setting [22]) was 128 µg/mL (≈ 163 µM); in assay [8] (setting [23]) it was 2 µg/mL (≈ 2.55 µM); in assay [9] (setting [21]), 128 µg/mL (≈ 163 µM); in assay [10] (setting [21]), more than 128 µg/mL; in [11] (setting [24]), 64 µg/mL (≈ 81.6 µM); in [12] (setting [25]) it was more than 128 µg/mL. Also, the MIC90 was more than 128 µg/mL in assay [13] (setting [26]), 64 µg/mL (≈ 81.6 µM) in assay [14] (setting [27]) and 128 µg/mL (≈ 163 µM) in assay [15] (setting [25]).

As for `C[C@H](O/N=C(\C(=O)N[C@@H]1C(=O)N2C(C(=O)[O-])=C(C[n+]3cnc(N)c(NCCNC(=O)c4ccc(O)c(O)c4)c3)CSC12)c1csc(N)n1)C(=O)O` (stereo partly drawn) [Compound 34], the MIC90 in [1] (setting [16]) was 16 µg/mL (≈ 21.5 µM); in [2] (setting [17]), 128 µg/mL (≈ 172 µM); in [3] (setting [18]), less than 0.0625 µg/mL; in assay [4] (setting [19]), 0.25 µg/mL (≈ 0.337 µM); in assay [5] (setting [20]) it was 0.5 µg/mL (≈ 0.673 µM); in assay [6] (setting [21]), 128 µg/mL (≈ 172 µM). Besides, the MIC90 in assay [7] (setting [22]) is 0.5 µg/mL (≈ 0.673 µM); in assay [8] (setting [23]) it was 1 µg/mL (≈ 1.35 µM); in assay [9] (setting [21]) it was 2 µg/mL (≈ 2.69 µM); in assay [10] (setting [21]) it was 128 µg/mL (≈ 172 µM); in assay [11] (setting [24]) it was 1 µg/mL (≈ 1.35 µM); in [12] (setting [25]), 0.5 µg/mL (≈ 0.673 µM). For the same compound, the MIC90 in [13] (setting [26]) is 2 µg/mL (≈ 2.69 µM); in [14] (setting [27]), 32 µg/mL (≈ 43.1 µM); in [15] (setting [25]), 1 µg/mL (≈ 1.35 µM).

As for `C[C@H](O/N=C(\C(=O)N[C@@H]1C(=O)N2C(C(=O)[O-])=C(C[n+]3cnc(N)c(NCCNC(=O)c4ccc(O)c(O)c4)c3)CSC12)c1nc(N)sc1Cl)C(=O)O` (stereo partly drawn) [Compound 35], the MIC90 in assay [1] (setting [16]) is 0.5 µg/mL (≈ 0.643 µM); in assay [2] (setting [17]) it was 16 µg/mL (≈ 20.6 µM); in [3] (setting [18]), less than 0.0625 µg/mL; in assay [4] (setting [19]) it was 2 µg/mL (≈ 2.57 µM); in [5] (setting [20]), 0.5 µg/mL (≈ 0.643 µM); in [6] (setting [21]), 2 µg/mL (≈ 2.57 µM). Moreover, the MIC90 was 1 µg/mL (≈ 1.29 µM) in assay [7] (setting [22]); less than 0.0625 µg/mL in [8] (setting [23]); 4 µg/mL (≈ 5.15 µM) in assay [9] (setting [21]); 4 µg/mL (≈ 5.15 µM) in assay [10] (setting [21]); 1 µg/mL (≈ 1.29 µM) in assay [11] (setting [24]); 1 µg/mL (≈ 1.29 µM) in assay [12] (setting [25]). For the same compound, the MIC90 in [13] (setting [26]) stood at 0.25 µg/mL (≈ 0.322 µM); in assay [14] (setting [27]) it was 2 µg/mL (≈ 2.57 µM); in assay [15] (setting [25]), 2 µg/mL (≈ 2.57 µM).

Consider `CC(C)(ON=C(C(=O)NC1C(=O)N2C(C(=O)[O-])=C(C[n+]3cnc(N)c(NCC=CC(=O)NO)c3)CSC12)c1csc(N)n1)C(=O)O` (stereo not drawn) [Compound 47], for which the MIC90 in assay [1] was 128 µg/mL (≈ 189 µM); in assay [2], 32 µg/mL (≈ 47.3 µM); in assay [3] (E. coli AG100), more than 128 µg/mL; in [4] it was 4 µg/mL (≈ 5.91 µM); in [5], 8 µg/mL (≈ 11.8 µM); in [6], 128 µg/mL (≈ 189 µM). In addition, the MIC90 in [7] (P. aeruginosa 40) is 32 µg/mL (≈ 47.3 µM); in [8] it was 0.25 µg/mL (≈ 0.369 µM); in assay [9], 16 µg/mL (≈ 23.6 µM); in [10], more than 128 µg/mL; in assay [11] it was 16 µg/mL (≈ 23.6 µM); in assay [12] it was 128 µg/mL (≈ 189 µM). Besides, the MIC90 in [13] (P. aeruginosa 37) turned out to be 64 µg/mL (≈ 94.6 µM); in assay [14], 8 µg/mL (≈ 11.8 µM); in assay [15] it was 128 µg/mL (≈ 189 µM).
